Data reported in patent US20260070917A1, “CYCLIN DEPENDENT KINASE DEGRADERS AND METHODS OF USE THEREOF” (Differentiated Therapeutics Inc, priority 2023, published 2026).

How the values were obtained:
Assay type in all cases: cell-based
[1] = molecular target: T1, CDK2 (Homo sapiens, UniProt P24941); test: HiBit Assay Protocol for CDK2 (HIBIT protein quantification, degradation); details: HEK293-CDK2-Hibit cells, compound treatment for 6 hours; for DC50: ABS DC50
T1 construct: host or cells: HEK293-CDK2-Hibit
Method in brief: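 HEK293 cells expressing HiBiT-tagged CDK2 were seeded overnight, then treated 6 h with a 3-fold, 10-point compound dilution series. CDK2 levels were read as luminescence after lytic HiBiT/LgBiT detection, normalised to DMSO-only and medium-only controls, and DC50 derived by curve fitting.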

[2] = molecular target: T2, CCNE1 (Homo sapiens, UniProt P24864); test: HiBit Assay Protocol for CCNE1 (HIBIT protein quantification, degradation); details: HEK293-CCNE1-Hibit cells, compound treatment for 6 hours
T2 construct: host or cells: HEK293-CCNE1-Hibit
T2 sequence (P24864 whole entry): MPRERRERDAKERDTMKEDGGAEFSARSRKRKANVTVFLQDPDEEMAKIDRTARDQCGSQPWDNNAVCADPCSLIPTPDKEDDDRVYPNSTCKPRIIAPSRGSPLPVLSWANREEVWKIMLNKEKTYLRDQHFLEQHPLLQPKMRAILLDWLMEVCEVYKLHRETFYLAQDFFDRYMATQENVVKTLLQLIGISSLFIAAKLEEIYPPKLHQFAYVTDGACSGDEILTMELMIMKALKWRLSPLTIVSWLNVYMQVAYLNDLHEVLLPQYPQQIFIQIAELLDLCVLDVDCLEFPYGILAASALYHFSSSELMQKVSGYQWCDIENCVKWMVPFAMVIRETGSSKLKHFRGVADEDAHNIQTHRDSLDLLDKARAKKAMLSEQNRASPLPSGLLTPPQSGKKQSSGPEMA
Method in brief: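 HEK293 cells expressing HiBiT-tagged CCNE1 were seeded overnight, then treated 6 h with a 3-fold, 10-point compound dilution series. HiBiT levels were read by lytic LgBiT luminescence and normalised to DMSO-only (high) and medium-only (low) controls. DC50 was derived by curve fitting.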

[3] = molecular target: T3, CDK9 (Homo sapiens, UniProt P50750); test: HiBit Assay Protocol for CDK9 (HIBIT protein quantification, degradation); details: HEK293-CDK9-Hibit cells, compound treatment for 6 hours; for Dmax: 6 h, read-out: CDK9 HIBIT Protein Quantification Maximum
T3 construct: host or cells: HEK293-CDK9-Hibit
T3 sequence (P50750 whole entry): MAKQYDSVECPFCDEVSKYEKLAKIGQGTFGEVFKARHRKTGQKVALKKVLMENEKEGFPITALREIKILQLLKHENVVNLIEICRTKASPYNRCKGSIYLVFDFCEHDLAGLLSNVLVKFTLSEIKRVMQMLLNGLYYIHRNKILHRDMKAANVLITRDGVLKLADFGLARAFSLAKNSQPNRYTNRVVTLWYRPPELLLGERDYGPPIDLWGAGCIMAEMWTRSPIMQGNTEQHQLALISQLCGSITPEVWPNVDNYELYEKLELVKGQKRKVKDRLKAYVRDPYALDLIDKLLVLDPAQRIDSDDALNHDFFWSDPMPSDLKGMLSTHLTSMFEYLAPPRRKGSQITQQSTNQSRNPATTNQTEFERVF
Method in brief: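 HEK293 cells carrying HiBiT-tagged CDK9 treated 6 h with compounds in a 3-fold, 10-point dilution series. CDK9 level read by lytic Nano-Glo HiBiT/LgBiT luminescence and normalized to 0.1% DMSO (high) and medium-only (low) controls. DC50 from curve fitting.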

Structure (SMILES) | CDK2 HIBIT Protein Quantification Maximum [1] [%] | DC50 [1] [nM] | CCNE1 HIBIT Protein Quantification Maximum [2] [%] | Dmax [3] [%] | CDK9 HIBIT Protein Quantification Maximum [3] [%]
CC1CCCC1N1C(=O)C2(CC2)c2cnc(NC3CCN(S(=O)(=O)N4CCC5(CCCN5C(=O)CCc5cccc6c5n(C)c(=O)n6C5CCC(=O)NC5=O)C4)CC3)nc21 (centres unmarked) [Compound 17] | 54 | 17 | 26 | 26 | 
CC1CCCC1N1C(=O)C2(CC2)c2cnc(NC3CCN(S(=O)(=O)N4CC5(CN(C(=O)CCCCc6ccc7c(c6)n(C)c(=O)n7C6CCC(=O)NC6=O)C5)C4)CC3)nc21 (centres unmarked) [Compound 108] | 42 |  | 16 | 4 | 
CC1CCCC1N1C(=O)C2(CC2)c2cnc(NC3CCN(S(=O)(=O)N4CC(N(C)C(=O)CCCc5ccc6c(c5)n(C)c(=O)n6C5CCC(=O)NC5=O)C4)CC3)nc21 (centres unmarked) [Compound 61] | 60 | 3 | 29 | 23 | 
CC1CCCC1N1C(=O)C2(CC2)c2cnc(NC3CCN(S(=O)(=O)C4CCCN(C(=O)CCCCc5cccc6c5n(C)c(=O)n6C5CCC(=O)NC5=O)C4)CC3)nc21 (centres unmarked) [Compound 101] | 38 |  | 47 | 23 | 
CC1CCCC1N1C(=O)C2(CC2)c2cnc(NC3CCN(S(=O)(=O)N4CCCN(C(=O)CCCc5cccc6c5n(C)c(=O)n6C5CCC(=O)NC5=O)CC4)CC3)nc21 (centres unmarked) [Compound 33] | 42 |  | 9 | 4 | 
Cn1nc(N2CCC(=O)NC2=O)c2ccc(C3CCN(Cc4cccc(S(=O)(=O)N5CCC(Nc6ncc7c(n6)N([C@@H]6CCC[C@@H](O)C6)C(=O)C76CC6)CC5)c4F)CC3)cc21 [Compound 172] | 74 | 4.05 | 49 | 17 | 
CC1CCCC1N1C(=O)C2(CC2)c2cnc(NC3CCN(S(=O)(=O)N4CC5(CCCN(C(=O)CCCc6cccc7c6n(C)c(=O)n7C6CCC(=O)NC6=O)C5)C4)CC3)nc21 (centres unmarked) [Compound 28] | 42 |  | 8 | 8 | 
Cn1nc(N2CCC(=O)NC2=O)c2ccc(C3CCN(Cc4cccc(S(=O)(=O)N5CCC(Nc6ncc7c(n6)N([C@@H]6CCC[C@@H](O)C6)C(=O)C76CC6)CC5)c4)CC3)cc21 [Compound 118, 1-(6-(1-(3-((4-((7′-((1R,3R)-3-hydroxycyclohexyl)-6′-oxo-6′,7′-dihydrospiro[cyclopropane-1,5′-pyrrolo[2,3-d]pyrimidin]-2′-yl)amino)piperidin-1-yl)sulfonyl)benzyl)piperidin-4-yl)-1-methyl-1H-indazol-3-yl)dihydropyrimidine-2,4(1H,3H)-dione] | 76 | 7 | 44 | 14 | 
CC1CCCC1N1C(=O)C2(CC2)c2cnc(NC3CCN(S(=O)(=O)N4CC5(CCN(C(=O)CCCCCCCc6ccc7c(c6)n(C)c(=O)n7C6CCC(=O)NC6=O)CC5)C4)CC3)nc21 (centres unmarked) [Compound 83] | 29 |  | 13 | 16 | 
CC1CCCC1N1C(=O)C2(CC2)c2cnc(NC3CCN(S(=O)(=O)C4CCN(C(=O)CCCCCc5ccc6c(c5)n(C)c(=O)n6C5CCC(=O)NC5=O)C4)CC3)nc21 (centres unmarked) [Compound 81] | 50 | 8 | 15 | 14 | 
CC1CCCC1N1C(=O)C2(CC2)c2cnc(NC3CCN(S(=O)(=O)C4CCN(C(=O)CCCCCCCCCc5cccc6c5n(C)c(=O)n6C5CCC(=O)NC5=O)C4)CC3)nc21 (centres unmarked) [Compound 53] | 62 | 10 | 46 | 36 | 
C[C@H](c1cccc(S(=O)(=O)N2CC[C@H](Nc3ncc4c(n3)N([C@@H]3CCC[C@@H](O)C3)C(=O)C43CC3)[C@H](F)C2)c1)N1CCC(c2ccc3c(N4CCC(=O)NC4=O)nn(C)c3c2)CC1 [Compound 198] | 80 | 2.48 | 40 | 2 | 
CC(c1cc(S(=O)(=O)N2CC[C@H](Nc3ncc4c(n3)N([C@@H]3CCC[C@@H](O)C3)C(=O)C43CC3)[C@H](F)C2)ccc1F)N1CCC(c2ccc3c(N4CCC(=O)NC4=O)nn(C)c3c2)CC1 (single isomer, unassigned) [Compound 201, 1-(6-{1-[(1R*)-1-{2-Fluoro-5-[(3R,4S)-3-fluoro-4-{7′-[(1R,3R)-3-hydroxycyclohexyl]-6′-oxospiro[cyclopropane-1,5′-pyrrolo[2,3-d]pyrimidin]-2′-ylamino}piperidin-1-ylsulfonyl]phenyl}ethyl]piperidin-4-yl}-1-methylindazol-3-yl)-1,3-diazinane-2,4-dione] | 88 | 5.66 | 47 |  | 23
Cn1nc(N2CCC(=O)NC2=O)c2ccc(C3CCN(Cc4cc(S(=O)(=O)N5CCC(Nc6ncc7c(n6)N([C@@H]6CCC[C@@H](O)C6)C(=O)C76CC6)CC5)ccn4)CC3)cc21 [Compound 160, 1-[6-(1-{[4-(4-{7′-[(1R,3R)-3-Hydroxycyclohexyl]-6′-oxospiro[cyclopropane-1,5′-pyrrolo[2,3-d]pyrimidin]-2′-ylamino}piperidin-1-ylsulfonyl)pyridin-2-yl]methyl}piperidin-4-yl)-1-methylindazol-3-yl]-1,3-diazinane-2,4-dione] | 75 | 25.2 | 34 | 38 | 
Cn1nc(N2CCC(=O)NC2=O)c2ccc(C3CCN(Cc4cc(S(=O)(=O)N5CCC(Nc6ncc7c(n6)N([C@@H]6CCC[C@@H](O)C6)C(=O)C76CC6)CC5)ccc4F)CC3)cc21 [Compound 169, 1-[6-(1-{[2-Fluoro-5-(4-{7′-[(1R,3R)-3-hydroxycyclohexyl]-6′-oxospiro[cyclopropane-1,5′-pyrrolo[2,3-d]pyrimidin]-2′-ylamino}piperidin-1-ylsulfonyl)phenyl]methyl}piperidin-4-yl)-1-methylindazol-3-yl]-1,3-diazinane-2,4-dione] | 84 | 5.85 | 47 | 10 | 
CC1CCCC1N1C(=O)C2(CC2)c2cnc(NC3CCN(S(=O)(=O)N4CCN(C(=O)CCCCCc5ccc6c(c5)n(C)c(=O)n6C5CCC(=O)NC5=O)CC4)CC3)nc21 (centres unmarked) [Compound 77] | 46 |  | 25 | 40 | 
CC1CCCC1N1C(=O)C2(CC2)c2cnc(NC3CCN(S(=O)(=O)N4CC5(CCCCN5C(=O)CCCc5cccc6c5n(C)c(=O)n6C5CCC(=O)NC5=O)C4)CC3)nc21 (centres unmarked) [Compound 26] | 42 |  | 8 | 9 | 
Cn1nc(N2CCC(=O)NC2=O)c2ccc(C3CCN(Cc4cccc(S(=O)(=O)N5CCC(Nc6ncc7c(n6)N([C@@H]6CCC[C@@H](O)C6)C(=O)C76CC6)CC5)c4)CC3F)cc21 (stereo partly drawn) [Compound 180, 1-[6-(3-Fluoro-1-{[3-(4-{7′-[(1R,3R)-3-hydroxycyclohexyl]-6′-oxospiro[cyclopropane-1,5′-pyrrolo[2,3-d]pyrimidin]-2′-ylamino}piperidin-1-ylsulfonyl)phenyl]methyl}piperidin-4-yl)-1-methylindazol-3-yl]-1,3-diazinane-2,4-dione] | 85 | 7.18 | 48 | 34 | 
CC1CCCC1N1C(=O)C2(CC2)c2cnc(NC3CCN(S(=O)(=O)N4CCC5(CCCN5C(=O)CCCc5cccc6c5n(C)c(=O)n6C5CCC(=O)NC5=O)C4)CC3)nc21 (centres unmarked) [Compound 25] | 29 |  | 25 | 15 | 
